According to patent US9695155B2, “Herbicidal substituted pyrimidinyloxy benzene compounds” (E. I. DU PONT DE NEMOURS AND COMPANY, priority 2013, dated 2017):

How the values were obtained:
[1] = test system: soybean; test: Test C postemergence; assay type: in vivo, Glycine max
Source text: (§1) Seeds of plant species selected from blackgrass (Alopecurus myosuroides), Italian ryegrass (Lolium multiflorum), wheat, winter (winter wheat, Triticum aestivum), galium (catchweed bedstraw, Galium aparine), corn (Zea mays), large (Lg) crabgrass (Digitaria sanguinalis), giant foxtail (Setaria faberii), johnsongrass (Sorghum halepense), lambsquarters (Chenopodium album), morningglory (Ipomoea coccinea), yellow nutsedge (Cyperus esculentus), pigweed (Amaranthus retroflexus), ragweed (common ragweed, Ambrosia elatior), soybean (Glycine max), barnyardgrass (Echinochloa crus-galli), oilseed rape (Brassica napus), waterhemp (common waterhemp, Amaranthus rudis), kochia (Kochia scoparia), wild oat (Avena fatua), surinam grass (Brachiaria decumbens), foxtail, green (green foxtail, Setaria viridis), goosegrass (Eleusine indica), bromegrass, downy (downy bromegrass, Bromus tectorum), nightshade (eastern black nightshade, Solanum ptycanthum), cocklebur (common cocklebur, Xanthium strumarium), cupgrass, woolly (woolly cupgrass, Eriochloa villosa), bermudagrass (Cynodon dactylon), sunflower, (common oilseed sunflower, Helianthus annuus), Russian thistle (Salsola kali), and velvetleaf (Abutilon theophrasti) were planted into a blend of loam soil and sand and treated preemergence with test chemicals formulated in a non-phytotoxic solvent mixture which included a surfactant.
(§2) At the same time, plants selected from these crop and weed species and also barley, winter (winter barley, Hordeum vulgare), windgrass (Apera spica-venti), chickweed (common chickweed, Stellaria media), deadnettle (henbit deadnettle, Lamium amplexicaule), and canarygrass (littleseed canarygrass, Phalaris minor) were planted in pots containing Redi-Earth® planting medium (Scotts Company, 14111 Scottslawn Road, Marysville, Ohio 43041) comprising spaghnum peat moss, vermiculite, wetting agent and starter nutrients and treated with postemergence applications of test chemicals formulated in the same manner. Plants ranged in height from 2 to 18 cm (1- to 4-leaf stage) for postemergence treatments. Treated plants and controls were maintained in a greenhouse for 13 to 15 days, after which time all species were compared to controls and visually evaluated. Plant response ratings, summarized in Table C, are based on a scale of 0 to 100 where 0 is no effect and 100 is complete control. A dash (-) response means no test result.

[2] = test system: giant foxtail; test: Test A preemergence; assay type: in vivo, Setaria faberii; settings: for Plant response rating, Foxtail, Giant: 125 g ai/ha, 0 to 100 scale where 0 is no effect and 100 is complete control; for Foxtail, Giant plant response rating: 0 to 100 scale, 0 no effect, 100 complete control, approx. 10 days
In short: (§3)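 Visual 0–100 rating (100 = complete control) taken about 10 d post-treatment relative to untreated checks. Preemergence: directed soil spray on sown loam/sand pots. Postemergence: seedlings 2–10 cm, 1–2 leaf. Non-phytotoxic solvent formulation with surfactant.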

[3] = test system: velvetleaf; test: Test C postemergence; assay type: in vivo, Abutilon theophrasti
Source text: as §1, §2

[4] = test system: barnyardgrass; test: Test A postemergence; assay type: in vivo, Echinochloa crus-galli
In short: as §3

[5] = test system: pigweed; test: Test A postemergence; assay type: in vivo, Amaranthus retroflexus
In short: as §3

[6] = test system: barnyardgrass; test: Test B flooded paddy test; assay type: in vivo, Echinochloa crus-galli; settings: Flood, 250 g ai/ha; 0 to 100 scale where 0 is no effect and 100 is complete control
In short: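 Visual ratings on a 0 to 100 scale, where 100 means complete control, compared treated plants with controls after 13 to 15 days in a greenhouse. Treatment went into paddy water 3 cm deep over the soil, applied to plants at the 2-leaf stage.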

[7] = test system: galium; test: Test C postemergence; assay type: in vivo, Galium aparine; settings: for Plant response rating, Galium / Galium plant response rating: scale 0 to 100 (0 no effect, 100 complete control)
In short: (§4)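 Greenhouse herbicide screen. Pre: seeded loam/sand, sprayed at planting. Post: 1–4 leaf plants (2–18 cm) in peat-based mix. Formulation: solvent mixture + surfactant, non-phytotoxic. Readout: visual % control vs untreated, 13–15 d; dash = not tested.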

[8] = test system: johnsongrass; test: Test C postemergence; assay type: in vivo, Sorghum halepense; settings: for Plant response rating, Johnsongrass / Johnsongrass plant response rating: scale 0 to 100 (0 no effect, 100 complete control)
Source text: as §1, §2

[9] = test system: chickweed; test: Test C postemergence; assay type: in vivo, Stellaria media; settings: for Plant response rating, Chickweed / Chickweed plant response rating: scale 0 to 100 (0 no effect, 100 complete control)
In short: as §4

[10] = Postemergence, 31 g ai/ha, scale 0 to 100 (0 no effect, 100 complete control), 13 to 15 days
[11] = Postemergence, 62 g ai/ha, scale 0 to 100 (0 no effect, 100 complete control)
[12] = 125 g ai/ha, 0 to 100 scale where 0 is no effect and 100 is complete control
[13] = 500 g ai/ha, 0 to 100 scale, 0 no effect, 100 complete control
[14] = Postemergence, 31 g ai/ha, 13 to 15 days
[15] = 1000 g ai/ha, 0 to 100 scale, 0 no effect, 100 complete control
[16] = 16 g ai/ha, postemergence, visual rating, 13 to 15 days
[17] = 8 g ai/ha, postemergence, 0 is no effect, 100 is complete control
[18] = 16 g ai/ha, postemergence, 0 is no effect, 100 is complete control
[19] = 125 g ai/ha, postemergence, visual rating, scale 0 to 100 (0 no effect, 100 complete control)
[20] = 31 g ai/ha, 0 to 100 scale, 0 no effect, 100 complete control
[21] = 125 g ai/ha, postemergence, visual rating
[22] = 31 g ai/ha, postemergence, visual rating, scale 0 to 100 (0 no effect, 100 complete control), 13 to 15 days
[23] = 31 g ai/ha, postemergence, visual rating, 13 to 15 days

SMILES | Plant response rating (0 to 100), Soybean ([1]; 125 g ai/ha, postemergence) | Plant response rating, Soybean [1, 10] | Plant response rating, Soybean [1, 11] | Plant response rating, Foxtail, Giant [2] | Plant response rating (0 to 100), Velvetleaf ([3]; 125 g ai/ha, postemergence) | Plant response rating, Velvetleaf [3, 10] | Plant response rating, Velvetleaf [3, 11] | Plant response rating, Barnyardgrass [4, 12] | Plant response rating, Barnyardgrass [6] | Plant response rating (0 to 100), Galium ([7]; 125 g ai/ha, postemergence) | Plant response rating, Galium [7, 14] | Plant response rating, Galium ([7]; Postemergence, 62 g ai/ha) | Plant response rating (0 to 100), Johnsongrass ([8]; 125 g ai/ha, postemergence) | Plant response rating, Johnsongrass ([8]; Postemergence, 62 g ai/ha) | Plant response rating (0 to 100), Chickweed ([9]; 125 g ai/ha, postemergence) | Plant response rating, Chickweed [9, 14] | Plant response rating, Chickweed ([9]; Postemergence, 62 g ai/ha) | Foxtail, Giant plant response rating ([2]; 1000 g ai/ha) | Plant response rating, Barnyardgrass [4, 15] | Plant response rating, Pigweed [5, 15] | also measured
N#Cc1cccc(Oc2ncc(F)cn2)c1-n1cc(Br)cn1 [Compound 62] | 95 | 45 | 85 | 90 | 75 | 20 | 20 | 90 | 0 | 80 | 65 | 65 | 10 | 5 | 75 | 50 | 50 | – | – | – | Plant response rating (0 to 100), Soybean ([1]; 250 g ai/ha, postemergence): 95; Foxtail, Giant plant response rating ([2]; 500 g ai/ha): 100; Plant response rating (0 to 100), Velvetleaf ([3]; 250 g ai/ha, postemergence): 85; Plant response rating, Barnyardgrass [4, 13]: 100; Plant response rating, Pigweed [5, 12]: 100; Plant response rating, Pigweed [5, 13]: 100; Plant response rating (0 to 100), Galium ([7]; 250 g ai/ha, postemergence): 95; Plant response rating (0 to 100), Johnsongrass ([8]; 250 g ai/ha, postemergence): 15; Plant response rating, Johnsongrass [8, 14]: 5; Plant response rating (0 to 100), Chickweed ([9]; 250 g ai/ha, postemergence): 90
Clc1cnc(Oc2cccc(Br)c2-n2cc(Br)cn2)nc1 [Compound 65] | 85 | 40 | 60 | – | 65 | 50 | 55 | – | 0 | 98 | 50 | 85 | 5 | 5 | 98 | 50 | 70 | 100 | 100 | 100 | Galium plant response rating [7, 16]: 100; Johnsongrass plant response rating [8, 16]: 5; Plant response rating, Johnsongrass [8, 14]: 5; Chickweed plant response rating [9, 16]: 60
N#Cc1cccc(Oc2ncc(Cl)cn2)c1-n1cnc(Br)c1 [Compound 74] | 75 | 40 | 65 | 90 | 50 | 30 | 35 | 90 | 0 | 65 | 40 | 55 | 25 | 0 | 50 | 25 | 30 | – | – | – | Plant response rating (0 to 100), Soybean ([1]; 250 g ai/ha, postemergence): 80; Foxtail, Giant plant response rating ([2]; 500 g ai/ha): 100; Plant response rating (0 to 100), Velvetleaf ([3]; 250 g ai/ha, postemergence): 65; Plant response rating, Barnyardgrass [4, 13]: 90; Plant response rating, Pigweed [5, 12]: 100; Plant response rating, Pigweed ([5]; 500 g ai/ha, 0 to 100 scale where 0 is no effect and 100 is complete control): 100; Plant response rating (0 to 100), Galium ([7]; 250 g ai/ha, postemergence): 65; Plant response rating (0 to 100), Johnsongrass ([8]; 250 g ai/ha, postemergence): 25; Plant response rating (0 to 100), Chickweed ([9]; 250 g ai/ha, postemergence): 50
CC(=NO)c1cn(-c2c(Br)cccc2Oc2ncc(Cl)cn2)nn1 [Compound 115] | – | – | – | – | – | – | – | – | 0 | – | – | – | – | – | – | – | – | 100 | 90 | 100 | Plant response rating (0 to 100), Soybean [1, 17]: 5; Plant response rating (0 to 100), Soybean [1, 18]: 10; Plant response rating (0 to 100), Velvetleaf [3, 17]: 5; Plant response rating (0 to 100), Velvetleaf [3, 18]: 5; Plant response rating (0 to 100), Galium [7, 17]: 5; Plant response rating (0 to 100), Galium [7, 18]: 40; Plant response rating (0 to 100), Johnsongrass [8, 17]: 5; Plant response rating (0 to 100), Johnsongrass [8, 18]: 5; Plant response rating (0 to 100), Chickweed ([9]; 4 g ai/ha, postemergence, 0 is no effect, 100 is complete control): 0; Plant response rating (0 to 100), Chickweed [9, 17]: 5; Plant response rating (0 to 100), Chickweed [9, 18]: 5
FCc1cccc(Oc2ncc(Br)cn2)c1-n1cc(C(F)(F)F)cn1 [Compound 120] | – | – | 30 | 100 | – | – | 35 | 80 | 0 | – | – | 30 | – | 5 | – | – | 70 | – | – | – | Plant response rating (0 to 100), Soybean [1, 18]: 30; Plant response rating, Soybean [1, 19]: 80; Foxtail, Giant plant response rating (0 to 100 scale) ([2]; 31 g ai/ha): 50; Plant response rating (0 to 100), Velvetleaf [3, 18]: 10; Plant response rating, Velvetleaf [3, 19]: 50; Plant response rating, Barnyardgrass [4, 20]: 20; Plant response rating, Pigweed [5, 20]: 60; Plant response rating (0 to 100), Galium [7, 18]: 30; Plant response rating, Galium [7, 21]: 60; Plant response rating (0 to 100), Johnsongrass [8, 18]: 0; Plant response rating, Johnsongrass [8, 21]: 10; Plant response rating (0 to 100), Chickweed [9, 18]: 40; Plant response rating, Chickweed [9, 21]: 80
Fc1cccc(Oc2ncc(Cl)cn2)c1-n1cc(C2CC2)nn1 [Compound 155] | – | – | 75 | – | – | – | 70 | – | 40 | – | – | 98 | – | 5 | – | – | 75 | 100 | 100 | 100 | Plant response rating (0 to 100), Soybean [1, 18]: 5; Soybean plant response rating [1, 22]: 70; Plant response rating, Soybean [1, 19]: 80; Plant response rating (0 to 100), Velvetleaf [3, 18]: 45; Velvetleaf plant response rating [3, 22]: 75; Plant response rating, Velvetleaf [3, 19]: 85; Plant response rating (0 to 100), Galium [7, 18]: 75; Galium plant response rating [7, 23]: 95; Plant response rating, Galium [7, 21]: 100; Plant response rating (0 to 100), Johnsongrass [8, 18]: 0; Johnsongrass plant response rating [8, 23]: 0; Plant response rating, Johnsongrass [8, 21]: 5; Plant response rating (0 to 100), Chickweed [9, 18]: 90; Chickweed plant response rating [9, 23]: 80; Plant response rating, Chickweed [9, 21]: 90
